Results taken from patent publication US9175045B2, “Peptidomimetic macrocycles” (Aileron Therapeutics, Inc., priority 2008, dated 2015).
Numbered stars: 1 amine (or outer) side, 2 acyl side, 3 side chain; on linkers, the order of the positions; unused ones are H or OH. Bridge positions count the residues as written; N and C are the ends. Square brackets hold non-standard residues; d marks the D form. Peptide text beside a SMILES is read from it. * marks the point of attachment. ξ: configuration not given here. ξαMeNle(6-ylidene) = CC(CCCC=[*:3])(N[*:1])C(=O)[*:2]; Nle = CCCC[C@H](N)C(=O)O; Aib = CC(C)(N)C(=O)O; Propionyl = CCC(=O)*

Experiments:
Jurkat cell line = assay type: cell-based; details: for EC50: 24 h
Protocol: Jurkat cell line (Clone E6-1, ATCC catalog #TIB-152) is grown in specific serum-supplemented media (RPMI-1640, Invitrogen catalog #22400) as recommended by ATCC. A day prior to the initiation of the study, cells are split at optimal cell density (2×10^5-5×10^5 cells/ml) to assure actively dividing cells. The next day, cells are washed twice in serum-free Opti-MEM media (Invitrogen, Catalog #51985) and cells are then plated at optimal cell density (10,000 cells/well) in 50 μl Opti-MEM media or Opti-MEM supplemented with 2% or 10% human serum (Bioreclamation, catalog #HMSRM) in 96-well white tissue culture plate (Nunc, catalog #136102).
For serum free experiment, crosslinked polypeptides are diluted from 2 mM stocks (100% DMSO) in sterile water to prepare 400 μM working solutions. The crosslinked polypeptides and controls are diluted 10-fold first and then serially two-fold diluted in Opti-MEM in dosing plates to provide concentrations of between 1.2 and 40 μM. 50 μl of each dilution is then added to the appropriate wells of the test plate to achieve final concentrations of the polypeptides equal to between 0.6 to 20 μM. For studies using Opti-MEM supplemented with human serum (Bioreclamation, catalog #HMSRM), crosslinked polypeptides are diluted from 10 mM stocks (100% DMSO) in sterile water to prepare 2 mM working solutions. The crosslinked polypeptides and controls are diluted 10-fold first and then serially two-fold diluted in Opti-MEM in the presence of 2% or 10% of human serum to provide concentrations of the polypeptides equal to between 6.25 to 200 μM in dosing plates. 50 μl of each dilution is then added to the appropriate wells of the test plate to achieve final concentrations of the polypeptides equal to between 3.125 to 100 μM. Controls included wells without polypeptides containing the same concentration of DMSO as the wells containing the macrocycles, wells containing 0.1% Triton X-100 and wells containing no cells. Plates are incubated for 24 hours at 37° C. in humidified 5% CO2 atmosphere.
At the end of the incubation period, CellTiter-Glo assay is performed according to manufacturer's instructions (Promega, catalog #G7573) and luminescence is measured using Synergy HT Plate reader (BioTek). Luminescence correlates with viability. A reduction in viability reflects the ability of the test compounds to induce programmed cell death via BAX and BAK.

human serum proteins = experiment: Apparent affinity to human serum proteins (Kd*) by EC50 shift analysis; assay type: in vitro ADME; details: nonlinear regression of EC50 shift with serum, n = 1, P = 700 μM for 100% serum
Source text: The measurement of apparent Kd values for serum protein by EC50 shift analysis provides a simple and rapid means of quantifying the propensity of experimental compounds to bind HSA and other serum proteins. A linear relationship exists between the apparent EC50 in the presence of serum protein (EC′50) and the amount of serum protein added to an in vitro assay. This relationship is defined by the binding affinity of the compound for serum proteins, expressed as Kd*. This term is an experimentally determined, apparent dissociation constant that may result from the cumulative effects of multiple, experimentally indistinguishable, binding events. The form of this relationship is presented here in Eq. 0.3, and its derivation can be found in Copeland et al, Biorg. Med. Chem. Lett. 2004, 14:2309-2312. [formula] A significant proportion of serum protein binding can be ascribed to drug interactions with HSA, due to the very high concentration of this protein in serum (35-50 g/L or 530-758 μM). To calculate the Kd value for these compounds we have assumed that the shift in EC50 upon protein addition can be ascribed fully to the HSA present in the added serum, where P is 700 μM for 100% serum, P is 70 μM for 10% serum, etc. We further made the simplifying assumption that all of the compounds bind HSA with a 1:1 stoichiometry, so that the term n in Eq. (0.3) is fixed at unity. With these parameters in place we calculated the Kd* value for each stapled peptide from the changes in EC50 values with increasing serum (and serum protein) concentrations by nonlinear regression analysis of Eq. 0.3 using Mathematica 4.1 (Wolfram Research, Inc., www.wolfram.com). EC′50 values in whole blood are estimated by setting P in Eq. 0.3 to 700 μM [HSA].

[1] = Estimated free fraction in blood, calculated from Kd* with [HSA]total 700 μM; assay type: in vitro ADME; details: human; [HSA]total set at 700 μM; read-out: Free Fraction est. in blood
Protocol: The free fraction in blood is estimated per the following equation, as derived by Trainor, Expert Opin. Drug Disc., 2007, 2(1):51-64, where [HSA]total is set at 700 μM. [formula]

Row | SMILES | EC50 (Jurkat cell line) | Kd (human serum proteins) | fraction unbound [1] | efficacy in serum-free media and in the presence of serum (Jurkat cell line; statement in words)
1 | CCCC[C@H](NC(=O)C1(C)CCCC=CCCCC(C)(NC(=O)[C@H](C)NC(=O)[C@H](CC(C)C)NC(=O)[C@H](Cc2c[nH]cn2)NC(=O)[C@H](CCCNC(=N)N)NC(=O)[C@H](C)NC(=O)[C@@H](NC(=O)[C@H](CC(N)=O)NC(=O)[C@H](CCCNC(=N)N)NC(=O)[C@@H](NC(=O)[C@H](C)NC(=O)[C@H](CC(=O)O)NC(C)=O)[C@@H](C)CC)[C@@H](C)CC)C(=O)N[C@@H](C(C)C)C(=O)NC(C)(C)C(=O)N[C@@H](CC(=O)O)C(=O)N1)C(=O)N[C@@H](C)C(=O)N[C@@H](CCCNC(=N)N)C(=O)N[C@@H](CO)C(=O)N[C@H](C(N)=O)[C@@H](C)CC (stereo partly shown) [Compound 4, Ac-DAIRNIARHLA$VAibD$NleARSI-NH2] (Ac-DAIRNIARHLA[ξαMeNle(6-ylidene)]V[Aib]D[ξαMeNle(6-ylidene)][Nle]ARSI-NH2; staple 12-16) | 1 µM | < 0.1 µM | < 0.001 | –
2 | CCC(=O)N[C@@H](CCCNC(=N)N)C(=O)N[C@@H](CC(N)=O)C(=O)N[C@H](C(=O)NC(C)(C)C(=O)N[C@@H](CCCNC(=N)N)C(=O)N[C@@H](Cc1c[nH]cn1)C(=O)N[C@@H](CC(C)C)C(=O)NC(C)(C)C(=O)NC1(C)CCCC=CCCCC(C)(C(=O)N[C@@H](C)C(=O)N[C@@H](C)C(=O)N[C@@H](CCCNC(=N)N)C(=O)N[C@@H](CO)C(=O)N[C@H](C(N)=O)[C@@H](C)CC)NC(=O)[C@H](CC(=O)O)NC(=O)C(C)(C)NC(=O)[C@H](C(C)C)NC1=O)[C@@H](C)CC (stereo partly shown) [Compound 9, Pr-RNIAibRHLAib$VAibD$AARSI-NH2] (Propionyl-RNI[Aib]RHL[Aib][ξαMeNle(6-ylidene)]V[Aib]D[ξαMeNle(6-ylidene)]AARSI-NH2; staple 9-13) | 1.1 µM | 2.9 µM | 0.0048 | –
3 | CC[C@H](C)[C@H](NC(C)=O)C(=O)N[C@@H](Cc1c[nH]c2ccccc12)C(=O)N[C@H](C(=O)N[C@@H](C)C(=O)N[C@@H](CCC(N)=O)C(=O)N[C@@H](CCC(N)=O)C(=O)N[C@@H](CC(C)C)C(=O)N[C@@H](CCCNC(=N)N)C(=O)NC1(C)CCCC=CCCCC(C)(C(=O)N[C@@H](Cc2ccccc2)C(=O)N[C@@H](CC(N)=O)C(=O)N[C@@H](C)C(=O)N[C@@H](Cc2ccc(O)cc2)C(=O)N[C@@H](Cc2ccc(O)cc2)C(=O)N[C@@H](C)C(=O)N[C@@H](CCCNC(=N)N)C(=O)N[C@@H](CCCNC(=N)N)C(N)=O)NC(=O)[C@H](CC(=O)O)NC(=O)CNC(=O)[C@H]([C@@H](C)CC)NC1=O)[C@@H](C)CC (stereo partly shown) [Compound 11, Ac-IWIAQQLR$IGD$FNAYYARR-NH2] | 1.2 µM | 1.1 µM | 0.0018 | –
4 | CC[C@H](C)[C@H](NC(C)=O)C(=O)N[C@@H](Cc1c[nH]c2ccccc12)C(=O)N[C@H](C(=O)N[C@@H](C)C(=O)N[C@@H](CCC(N)=O)C(=O)N[C@@H](C)C(=O)N[C@@H](CC(C)C)C(=O)N[C@@H](CCCNC(=N)N)C(=O)NC1(C)CCCC=CCCCC(C)(C(=O)N[C@@H](Cc2ccccc2)C(=O)N[C@@H](CC(N)=O)C(=O)N[C@@H](C)C(=O)N[C@@H](Cc2ccc(O)cc2)C(=O)N[C@@H](Cc2ccc(O)cc2)C(=O)N[C@@H](C)C(=O)N[C@@H](CCCNC(=N)N)C(=O)N[C@@H](CCCNC(=N)N)C(N)=O)NC(=O)[C@H](CC(=O)O)NC(=O)CNC(=O)[C@H]([C@@H](C)CC)NC1=O)[C@@H](C)CC (stereo partly shown) [Compound 12, Ac-IWIAQALR$IGD$FNAYYARR-NH2] | 1.3 µM | 2.3 µM | 0.0038 | –
5 | CC[C@H](C)[C@H](NC(=O)[C@H](Cc1c[nH]c2ccccc12)NC(=O)[C@H](CCCNC(=N)N)NC(C)=O)C(=O)N[C@@H](C)C(=O)N[C@@H](CCC(N)=O)C(=O)N[C@@H](CCC(N)=O)C(=O)N[C@@H](CC(C)C)C(=O)N[C@@H](CCCNC(=N)N)C(=O)NC1(C)CCCC=CCCCC(C)(C(=O)N[C@@H](Cc2ccccc2)C(=O)N[C@@H](CC(N)=O)C(=O)N[C@@H](C)C(=O)N[C@@H](Cc2ccc(O)cc2)C(=O)N[C@@H](Cc2ccc(O)cc2)C(=O)N[C@@H](C)C(=O)N[C@@H](CCCNC(=N)N)C(=O)N[C@@H](CCCNC(=N)N)C(N)=O)NC(=O)[C@H](CC(=O)O)NC(=O)CNC(=O)[C@H]([C@@H](C)CC)NC1=O (stereo partly shown) [Compound 13, Ac-RWIAQQLR$IGD$FNAYYARR-NH2] | 1.5 µM | 3.8 µM | 0.0063 | –
6 | CC[C@H](C)[C@H](NC(=O)[C@H](Cc1c[nH]c2ccccc12)NC(=O)[C@H](CCCNC(=N)N)NC(C)=O)C(=O)N[C@@H](C)C(=O)N[C@@H](CCC(N)=O)C(=O)N[C@@H](C)C(=O)N[C@@H](CC(C)C)C(=O)N[C@@H](CCCNC(=N)N)C(=O)NC1(C)CCCC=CCCCC(C)(C(=O)N[C@@H](Cc2ccccc2)C(=O)N[C@@H](CC(N)=O)C(=O)N[C@@H](C)C(=O)N[C@@H](Cc2ccc(O)cc2)C(=O)N[C@@H](Cc2ccc(O)cc2)C(=O)N[C@@H](C)C(=O)N[C@@H](CCCNC(=N)N)C(=O)N[C@@H](CCCNC(=N)N)C(N)=O)NC(=O)[C@H](CC(N)=O)NC(=O)CNC(=O)[C@H]([C@@H](C)CC)NC1=O (stereo partly shown) [Compound 15, Ac-RWIAQALR$1GN$FNAYYARR-NH2] | 0.9 µM | 5.1 µM | 0.0084 | –

Further compounds by falling EC50 (Jurkat cell line), results first:

Row | EC50 (Jurkat cell line) | Kd (human serum proteins) | fraction unbound [1] | SMILES | efficacy in serum-free media and in the presence of serum (Jurkat cell line; statement in words)
7 | 1.3 µM | < 0.1 µM | < 0.001 | CC[C@H](C)[C@H](NC(C)=O)C(=O)N[C@@H](Cc1c[nH]c2ccccc12)C(=O)N[C@H](C(=O)N[C@@H](C)C(=O)N[C@@H](CCC(N)=O)C(=O)N[C@@H](CCC(=O)O)C(=O)N[C@@H](CC(C)C)C(=O)N[C@@H](CCCNC(=N)N)C(=O)NC1(C)CCCC=CCCCC(C)(C(=O)N[C@@H](Cc2ccccc2)C(=O)N[C@@H](CC(N)=O)C(=O)N[C@@H](C)C(=O)N[C@@H](Cc2ccc(O)cc2)C(=O)N[C@@H](Cc2ccc(O)cc2)C(=O)N[C@@H](C)C(=O)N[C@@H](CCCNC(=N)N)C(=O)N[C@@H](CCCNC(=N)N)C(N)=O)NC(=O)[C@H](CC(=O)O)NC(=O)CNC(=O)[C@H]([C@@H](C)CC)NC1=O)[C@@H](C)CC (stereo partly shown) [Compound 10, Ac-IWIAQELR$IGD$FNAYYARR-NH2] | high efficacy in serum-free media, which is substantially reduced in the presence of serum
8 | 0.5 µM | 3.5 µM | 0.0058 | CC[C@H](C)[C@H](NC(C)=O)C(=O)N[C@@H](Cc1c[nH]c2ccccc12)C(=O)N[C@H](C(=O)N[C@@H](C)C(=O)N[C@@H](CCC(N)=O)C(=O)N[C@@H](C)C(=O)N[C@@H](CC(C)C)C(=O)N[C@@H](CCCNC(=N)N)C(=O)NC1(C)CCCC=CCCCC(C)(C(=O)N[C@@H](Cc2ccccc2)C(=O)N[C@@H](CC(N)=O)C(=O)N[C@@H](C)C(=O)N[C@@H](Cc2ccc(O)cc2)C(=O)N[C@@H](Cc2ccc(O)cc2)C(=O)N[C@@H](C)C(=O)N[C@@H](CCCNC(=N)N)C(=O)N[C@@H](CCCNC(=N)N)C(N)=O)NC(=O)[C@H](CC(N)=O)NC(=O)CNC(=O)[C@H]([C@@H](C)CC)NC1=O)[C@@H](C)CC (stereo partly shown) [Compound 16, Ac-IWIAQALR$IGN$FNAYYARR-NH2] | –
